Test results: the NIST ThermoML archive (doi:10.1016/j.jct.2011.12.010)

How the values were obtained:
[1] = Molar enthalpy of transition or fusion; details: Crystal; Adiabatic calorimetry
[2] = for molar entropy: 101.33 kPa, Vacuum adiabatic calorimetry

CC(C)(C)Cc1ccccc1 [(2,2-dimethylpropyl)benzene]
Details	Molar enthalpy of transition or fusion [kcal/mol]
[1]	3.676

[2]
Details	Triple point temperature [K]	molar entropy [J/K/mol]
5 K, Crystal	–	0.1197
10 K, Crystal	–	0.956
15 K, Crystal	–	3.026
20 K, Crystal	–	6.298
25 K, Crystal	–	10.58
30 K, Crystal	–	15.48
35 K, Crystal	–	20.64
40 K, Crystal	–	25.96
45 K, Crystal	–	31.32
50 K, Crystal	–	36.64
60 K, Crystal	–	46.98
70 K, Crystal	–	57.07
80 K, Crystal	–	66.82
90 K, Crystal	–	76.28
100 K, Crystal	–	85.56
110 K, Crystal	–	94.62
120 K, Crystal	–	103.5
130 K, Crystal	–	112.2
140 K, Crystal	–	120.9
150 K, Crystal	–	129.4
160 K, Crystal	–	137.8
170 K, Crystal	–	146.1
180 K, Crystal	–	154.2
190 K, Crystal	–	162.5
200 K, Crystal	–	170.5
210 K, Crystal	–	178.6
220 K, Crystal	–	186.7
230 K, Crystal	–	194.6
240 K, Crystal	–	202.5
250 K, Crystal	–	210.4
255.43 K, Crystal	–	214.7
255.43 K, Liquid	–	274.9
260 K, Liquid	–	279.4
270 K, Liquid	–	288.9
280 K, Liquid	–	298.4
290 K, Liquid	–	307.7
298.15 K, Liquid	–	315.2
300 K, Liquid	–	316.9
310 K, Liquid	–	325.8
320 K, Liquid	–	334.7
330 K, Liquid	–	343.4
340 K, Liquid	–	351.9
350 K, Liquid	–	360.4
Crystal, Adiabatic calorimetry	255.43	–
